Assay results published in the NIST ThermoML archive (doi:10.1021/je0497000).
Numbers after ± are expanded uncertainties.

Assays:
[1] = Liquid; for mass density / speed of sound: 298.15 K, 101.3 kPa
[2] = xn = mol fraction of the nth substance listed; settings: 298.15 K, 101.3 kPa, Liquid

Work on `CC(C)=O` [acetone] yielded a mass density [1] of 784.37 ± 0.31 kg/m3, a speed of sound [1] of 1162 ± 2 m/s and a Normal boiling temperature [1] of 56.12 ± 0.13 °C.
Compound `CC(C)=O` [acetone] + COC(=O)OC has a mass density ([2]; x1 = 1) of 784.37 ± 0.31 kg/m3 and a speed of sound ([2]; x1 = 1) of 1162 ± 2 m/s.
In the case of `CCC(C)=O` [butanone], the mass density [1] is reported as 799.7 ± 0.35 kg/m3, the speed of sound [1] is reported as 1192 ± 2 m/s and the Normal boiling temperature [1] is reported as 79.63 ± 0.13 °C.
With `CCC(C)=O` [butanone] + COC(=O)OC the mass density ([2]; x1 = 0.0499) was 1049.31 ± 0.54 kg/m3, the speed of sound ([2]; x1 = 0.0499) was 1199 ± 2 m/s and the mass density ([2]; x1 = 0.0999) was 1035.29 ± 0.51 kg/m3. It also gave a speed of sound ([2]; x1 = 0.0999) of 1198 ± 2 m/s, a mass density ([2]; x1 = 0.1994) of 1007.79 ± 0.47 kg/m3 and a speed of sound ([2]; x1 = 0.1994) of 1196 ± 2 m/s. For the same compound, the mass density ([2]; x1 = 0.2996) was 980.5 ± 0.44 kg/m3, the speed of sound ([2]; x1 = 0.2996) was 1194 ± 2 m/s and the mass density ([2]; x1 = 0.3986) was 953.88 ± 0.42 kg/m3. It also gave a speed of sound ([2]; x1 = 0.3986) of 1192 ± 2 m/s, a mass density ([2]; x1 = 0.5027) of 926.3 ± 0.41 kg/m3 and a speed of sound ([2]; x1 = 0.5027) of 1191 ± 2 m/s. The mass density ([2]; x1 = 0.6014) was 900.51 ± 0.38 kg/m3, the speed of sound ([2]; x1 = 0.6014) was 1190 ± 2 m/s and the mass density ([2]; x1 = 0.7102) was 872.49 ± 0.36 kg/m3. The speed of sound ([2]; x1 = 0.7102) was 1190 ± 2 m/s, the mass density ([2]; x1 = 0.8038) was 848.69 ± 0.35 kg/m3 and the speed of sound ([2]; x1 = 0.8038) was 1191 ± 2 m/s. For the same compound, the mass density ([2]; x1 = 0.9043) was 823.48 ± 0.35 kg/m3, the speed of sound ([2]; x1 = 0.9043) was 1191 ± 2 m/s and the mass density ([2]; x1 = 0.9514) was 811.75 ± 0.35 kg/m3. It also gave a speed of sound ([2]; x1 = 0.9514) of 1191 ± 2 m/s, a mass density ([2]; x1 = 1) of 799.7 ± 0.35 kg/m3 and a speed of sound ([2]; x1 = 1) of 1192 ± 2 m/s.
With `COC(=O)OC` [dimethyl carbonate] the mass density [1] was 1063.33 ± 0.56 kg/m3, the speed of sound [1] was 1198 ± 2 m/s and the Normal boiling temperature [1] was 90.31 ± 0.13 °C.
`COC(=O)OC` [dimethyl carbonate] + CC(C)=O gave a mass density ([2]; x2 = 0) of 1063.33 ± 0.56 kg/m3, a speed of sound ([2]; x2 = 0) of 1198 ± 2 m/s and a mass density ([2]; x2 = 0.0447) of 1052.64 ± 0.53 kg/m3. For the same compound, the speed of sound ([2]; x2 = 0.0447) was 1196 ± 2 m/s, the mass density ([2]; x2 = 0.0906) was 1041.54 ± 0.51 kg/m3 and the speed of sound ([2]; x2 = 0.0906) was 1195 ± 2 m/s. The mass density ([2]; x2 = 0.1886) was 1017.22 ± 0.45 kg/m3, the speed of sound ([2]; x2 = 0.1886) was 1192 ± 2 m/s and the mass density ([2]; x2 = 0.2886) was 991.68 ± 0.4 kg/m3. The speed of sound ([2]; x2 = 0.2886) was 1188 ± 2 m/s, the mass density ([2]; x2 = 0.3941) was 963.86 ± 0.37 kg/m3 and the speed of sound ([2]; x2 = 0.3941) was 1184 ± 2 m/s. It also gave a mass density ([2]; x2 = 0.4933) of 936.83 ± 0.35 kg/m3, a speed of sound ([2]; x2 = 0.4933) of 1180 ± 2 m/s and a mass density ([2]; x2 = 0.5988) of 907.17 ± 0.32 kg/m3. For the same compound, the speed of sound ([2]; x2 = 0.5988) was 1176 ± 2 m/s, the mass density ([2]; x2 = 0.7021) was 877.06 ± 0.3 kg/m3 and the speed of sound ([2]; x2 = 0.7021) was 1172 ± 2 m/s. The mass density ([2]; x2 = 0.7974) was 848.41 ± 0.29 kg/m3, the speed of sound ([2]; x2 = 0.7974) was 1168 ± 2 m/s and the mass density ([2]; x2 = 0.9053) was 814.88 ± 0.29 kg/m3. For the same compound, the speed of sound ([2]; x2 = 0.9053) was 1165 ± 2 m/s, the mass density ([2]; x2 = 0.9534) was 799.51 ± 0.3 kg/m3 and the speed of sound ([2]; x2 = 0.9534) was 1163 ± 2 m/s.
`COC(=O)OC` [dimethyl carbonate] + CCC(C)=O gave a mass density ([2]; x2 = 0) of 1063.33 ± 0.56 kg/m3 and a speed of sound ([2]; x2 = 0) of 1198 ± 2 m/s.
In the case of `COC(=O)OC` [dimethyl carbonate] + CCCC(C)=O, the mass density ([2]; x2 = 0) is reported as 1063.33 ± 0.56 kg/m3 and the speed of sound ([2]; x2 = 0) is reported as 1198 ± 2 m/s.
For `CCCC(C)=O` [pentan-2-one], the mass density [1] was 801.39 ± 0.35 kg/m3, the speed of sound [1] was 1212 ± 2 m/s and the Normal boiling temperature [1] was 102.21 ± 0.13 °C.
`CCCC(C)=O` [pentan-2-one] + COC(=O)OC gave a mass density ([2]; x1 = 0.0498) of 1046.71 ± 0.53 kg/m3, a speed of sound ([2]; x1 = 0.0498) of 1199 ± 2 m/s and a mass density ([2]; x1 = 0.1004) of 1030.33 ± 0.51 kg/m3. For the same compound, the speed of sound ([2]; x1 = 0.1004) was 1198 ± 2 m/s, the mass density ([2]; x1 = 0.1996) was 999.49 ± 0.47 kg/m3 and the speed of sound ([2]; x1 = 0.1996) was 1197 ± 2 m/s. For the same compound, the mass density ([2]; x1 = 0.3009) was 969.77 ± 0.44 kg/m3, the speed of sound ([2]; x1 = 0.3009) was 1198 ± 2 m/s and the mass density ([2]; x1 = 0.398) was 942.67 ± 0.42 kg/m3. The speed of sound ([2]; x1 = 0.398) was 1198 ± 2 m/s, the mass density ([2]; x1 = 0.5036) was 914.75 ± 0.41 kg/m3 and the speed of sound ([2]; x1 = 0.5036) was 1200 ± 2 m/s. For the same compound, the mass density ([2]; x1 = 0.6017) was 890.1 ± 0.38 kg/m3, the speed of sound ([2]; x1 = 0.6017) was 1201 ± 2 m/s and the mass density ([2]; x1 = 0.7046) was 865.52 ± 0.36 kg/m3. It also gave a speed of sound ([2]; x1 = 0.7046) of 1203 ± 2 m/s, a mass density ([2]; x1 = 0.8012) of 843.59 ± 0.35 kg/m3 and a speed of sound ([2]; x1 = 0.8012) of 1206 ± 2 m/s. For the same compound, the mass density ([2]; x1 = 0.901) was 821.94 ± 0.35 kg/m3, the speed of sound ([2]; x1 = 0.901) was 1209 ± 2 m/s and the mass density ([2]; x1 = 0.9504) was 811.55 ± 0.35 kg/m3. It also gave a speed of sound ([2]; x1 = 0.9504) of 1211 ± 2 m/s, a mass density ([2]; x1 = 1) of 801.39 ± 0.35 kg/m3 and a speed of sound ([2]; x1 = 1) of 1212 ± 2 m/s.
